Measured values reported in patent US12611423B2, “Medical use of tafoxiparin” (DILAFOR AB, priority 2022, dated 2026).

Tested on: term pregnant, nulliparous women with an unripe cervix
Test: Clinical phase II trial PPL17 (Parts A and B), subcutaneous tafoxiparin vs placebo
Type: in vivo, human
Conditions: for women achieving spontaneous onset of labor (FIG. 1): placebo 28.7%; for number of subjects (women) that reach spontaneous onset of labor / subjects (women) that reach spontaneous onset of labor, % of n: cumulative
Method: A clinical phase II trial is performed as a randomized, double-blind, placebo-controlled, parallel-group proof of concept study (Part A) with a conditional dose finding follow up study (Part B) to evaluate the efficacy, safety, tolerability and dose response of subcutaneously administered tafoxiparin as a supplement to induction therapy in term pregnant, nulliparous women with an unripe cervix. The study is performed in Sweden and Finland (PPL17), and an EMA (European Medicines Agency) description of the study can be found on the EU Clinical Trials Register web (www.clinicaltrialsregister.eu/ctr-search/search?query=PPL17).
A total of 170 term pregnant women are randomized to receive either 300 mg of tafoxiparin, or corresponding placebo (vehicle), administered subcutaneously every 24±3 hours and up to a total of 7 doses, or until partus (Part A).
In the dose finding follow up study (Part B), a total of 164 term pregnant women are randomized to receive either 75 or 150 mg of tafoxiparin administered subcutaneously every 24±3 hours […] and up to a total of 7 doses, or until partus.
To assess the efficacy of tafoxiparin on cervical ripening/cervical ripening rate, during and up to the first seven days of treatment, measured by Bishop score. All women must be examined to check the cervical state before enrollment.
Tafoxiparin/Placebo is supplied by Dilafor AB to the site as kits designed to constitute 300 mg of tafoxiparin or placebo for daily administration. Apart from the active substance, each ml of study drug will constitute 0.015 M phosphate buffer. The study medication kit for each patient will contain 8 doses consisting of 2 vials containing a minimum extractable volume of 1.6 ml of 150 mg/ml of tafoxiparin or placebo. One dose is a reserve dose in case a dose is rendered unusable. The investigational product should be administered subcutaneously every 24±3 hours by the site staff for up to 7 doses, or until partus. At each dosing time 1.0 ml of the drug will be extracted from each of the 2 vials and injected as separate s.c. injections in the abdominal or hip region.
Tafoxiparin/Placebo is supplied by Dilafor AB to the site as kits designed to constitute 75 or 150 mg of tafoxiparin for daily administration. Apart from the active substance, each ml of study drug will constitute 0.015 M phosphate buffer. The study medication kit for each patient will contain 8 doses consisting of 2 vials for each injection occasion containing a minimum extractable volume of 1.6 ml of 150 mg/ml of tafoxiparin or placebo. For subjects receiving 75 mg of tafoxiparin, one vial will contain active substance and one containing placebo. For subjects receiving 150 mg of tafoxiparin, both vials will contain active substance. One dose is a reserve dose in case a dose is rendered unusable. The investigational product should be administered subcutaneously every 24±3 hours by the site staff for up to 7 doses, or until partus. At each dosing time, 0.5 ml of the drug will be extracted from each of the 2 vials and injected as separate s.c. injections in the abdominal or hip region.
If the subject is found to be eligible for the study, they will be randomized to study treatment, i.e. 300 mg of tafoxiparin or corresponding placebo daily (Part A), or 75 or 150 mg daily (Part B).
The study medication will be administered subcutaneously in the abdominal or hip region for up to a total of 7 doses or until labor induction or spontaneous onset of labor. If the cervix is still unripe after 7 doses of IMP, the patient is given cervical balloon catheter as a mean of labor induction.
Subjects who enter into spontaneous onset of labor after 1-7 doses of IMP should be managed according to clinical routines.
Subjects who are given 4-7 doses without entering into spontaneous onset of labor, but with a ripe cervix (Bishop Score ≥6), should be induced into labor by amniotomy and oxytocin treatment, but not before 4 treatment doses have been given. […]

Substance: tafoxiparin
- women achieving spontaneous onset of labor (FIG. 1) (75 mg s.c. once daily up to 7 doses, 33 women of 82, p-value 0.102): 40.2%
- women reaching spontaneous onset of labor with uncomplicated delivery (75 mg, 22 of the 29 women, placebo 54.5%): 75.9%
- number of subjects (women) that reach spontaneous onset of labor (75 mg, Study day 1, n = 33): 0
- subjects (women) that reach spontaneous onset of labor, % of n (75 mg, Study day 1, n = 33): (0%)
- number of subjects (women) that reach spontaneous onset of labor (75 mg, Study day 2, n = 33): 3
- subjects (women) that reach spontaneous onset of labor, % of n (75 mg, Study day 2, n = 33): (9%)
- number of subjects (women) that reach spontaneous onset of labor (75 mg, Study day 3, n = 33): 6
- subjects (women) that reach spontaneous onset of labor, % of n (75 mg, Study day 3, n = 33): (18%)
- number of subjects (women) that reach spontaneous onset of labor (75 mg, Study day 4, n = 33): 11
- subjects (women) that reach spontaneous onset of labor, % of n (75 mg, Study day 4, n = 33): (33%)
- number of subjects (women) that reach spontaneous onset of labor (75 mg, Study day 5, n = 33): 22
- subjects (women) that reach spontaneous onset of labor, % of n (75 mg, Study day 5, n = 33): (67%)
- number of subjects (women) that reach spontaneous onset of labor (75 mg, Study day 6, n = 33): 25
- subjects (women) that reach spontaneous onset of labor, % of n (75 mg, Study day 6, n = 33): (76%)
- number of subjects (women) that reach spontaneous onset of labor (75 mg, Study day 7, n = 33): 32
- subjects (women) that reach spontaneous onset of labor, % of n (75 mg, Study day 7, n = 33): (97%)
- number of subjects (women) that reach spontaneous onset of labor (75 mg, Study day 8, n = 33): 33
- subjects (women) that reach spontaneous onset of labor, % of n (75 mg, Study day 8, n = 33): (100%)
- Fetal distress as indication for operative delivery (ODFD), number of women (75 mg, n = 83): 16
- Labor induced with PGE-1, number of women (75 mg, n = 83): 7
- Labor induced with amniotomy, number of women (75 mg, n = 83): 46
- Labor induced with oxytocin, number of women (75 mg, n = 83): 34
- Labor induced, number of women (75 mg, n = 83): 48
- Labor induction with Balloon catheter, number of women (75 mg, n = 83): 35
- Number of patients with operative delivery (75 mg, n = 83): 32
- Labor induced with PGE-1, % of women (75 mg, n = 83, placebo 10.2%): 8.4%
- Fetal distress as indication for operative delivery (ODFD), % of women (75 mg, n = 83, placebo 22.7%): 19.3%
- patients with operative delivery, % (75 mg, n = 83, placebo 45.5%): 38.6%
- Labor induced with oxytocin, % of women (75 mg, n = 83, placebo 54.5%): 41.0%
- Labor induced with amniotomy, % of women (75 mg, n = 83, placebo 56.8%): 55.4%
- Labor induction with Balloon catheter, % of women (75 mg, n = 83, placebo 58.0%): 42.2%
- Labor induced, % of women (75 mg, n = 83, placebo 70.5%): 57.8%
- women needing instrumental delivery (FIG. 4, vaginal mode of partus) (75 mg, women with spontaneous onset of labor, 7 of the 29 women, p-value=0.181, placebo 45.5%): 24.1%
- women needing instrumental delivery or caesarian section to reach partus (FIG. 5) (75 mg, women with spontaneous onset of labor, 11 of 33 women, placebo 52%): 33.3%
- women reaching partus by vaginal delivery with no need for instrumental delivery nor caesarian section (FIG. 5) (75 mg, women with spontaneous onset of labor, 22 of 33 women, placebo 48%): 66.7%
- women achieving spontaneous onset of labor (FIG. 1) (150 mg s.c. once daily up to 7 doses, 36 women of 85, p-value 0.039): 42.4%
- women reaching spontaneous onset of labor with uncomplicated delivery (150 mg, 23 of the 32 women, placebo 54.5%): 71.9%
- number of subjects (women) that reach spontaneous onset of labor (150 mg, Study day 1, n = 36): 0
- subjects (women) that reach spontaneous onset of labor, % of n (150 mg, Study day 1, n = 36): (0%)
- number of subjects (women) that reach spontaneous onset of labor (150 mg, Study day 2, n = 36): 4
- subjects (women) that reach spontaneous onset of labor, % of n (150 mg, Study day 2, n = 36): (11%)
- number of subjects (women) that reach spontaneous onset of labor (150 mg, Study day 3, n = 36): 15
- subjects (women) that reach spontaneous onset of labor, % of n (150 mg, Study day 3, n = 36): (42%)
- number of subjects (women) that reach spontaneous onset of labor (150 mg, Study day 4, n = 36): 19
- subjects (women) that reach spontaneous onset of labor, % of n (150 mg, Study day 4, n = 36): (53%)
- number of subjects (women) that reach spontaneous onset of labor (150 mg, Study day 5, n = 36): 26
- subjects (women) that reach spontaneous onset of labor, % of n (150 mg, Study day 5, n = 36): (72%)
- number of subjects (women) that reach spontaneous onset of labor (150 mg, Study day 6, n = 36): 30
- subjects (women) that reach spontaneous onset of labor, % of n (150 mg, Study day 6, n = 36): (83%)
- number of subjects (women) that reach spontaneous onset of labor (150 mg, Study day 7, n = 36): 34
- subjects (women) that reach spontaneous onset of labor, % of n (150 mg, Study day 7, n = 36): (94%)
- number of subjects (women) that reach spontaneous onset of labor (150 mg, Study day 8, n = 36): 35
- subjects (women) that reach spontaneous onset of labor, % of n (150 mg, Study day 8, n = 36): (97%)
- number of subjects (women) that reach spontaneous onset of labor (150 mg, Study day 9, n = 36): 36
- subjects (women) that reach spontaneous onset of labor, % of n (150 mg, Study day 9, n = 36): (100%)
- Fetal distress as indication for operative delivery (ODFD), number of women (150 mg, n = 85): 20
- Labor induced with PGE-1, number of women (150 mg, n = 85): 7
- Labor induced with amniotomy, number of women (150 mg, n = 85): 39
